Reference: patent publication US20080051348A1, “TREATMENT OF INFECTIONS AND OTHER DISORDERS” (RegeneRx Biopharmaceuticals, Inc., priority 2002, published 2008)
≈ marks a conversion by molar mass, not a printed value.

Tests used:
Type in all cases: cell-based
[1] = test system: Pseudomonas aeruginosa; test: Antimicrobial assay, Example 1
Method: The purpose of this study was to study the antimicrobial activity of peptides against common pathogens in vitro. Antimicrobial assays were performed to assess peptide activity against Pseudomonas aeruginosa. […]

[2] = test system: Staphylococcus aureus; test: Antimicrobial assay, Example 2
Method: (§1) Antimicrobial assays were performed to assess peptide activity against Pseudomonas aeruginosa (PA), Staphylococcus aureus ([…]), and Staphylococcus epidermidis (SE).

[3] = test system: Staphylococcus epidermidis (SE); test: Antimicrobial assay, Example 2
Method: as §1

[4] = test system: Escherichia coli; test: Antimicrobial activity, Example 3
[5] = test system: Pseudomonas aeruginosa (PA)
Method: as §1

[6] = test system: Staphylococcus aureus; test: Antimicrobial activity, Example 3

CC[C@H](C)[C@H](NC(=O)[C@H](CCC(=O)O)NC(=O)[C@H](C)NC(=O)[C@H](CCSC)NC(=O)[C@H](CC(=O)O)NC(=O)[C@@H]1CCCN1C(=O)[C@H](CCCCN)NC(=O)[C@H](CC(=O)O)NC(=O)[C@H](CO)NC(C)=O)C(=O)N[C@@H](CCC(=O)O)C(=O)N[C@@H](CCCCN)C(=O)N[C@@H](Cc1ccccc1)C(=O)N[C@@H](CC(=O)O)C(=O)N[C@@H](CCCCN)C(=O)N[C@@H](CO)C(=O)N[C@@H](CCCCN)C(=O)N[C@@H](CC(C)C)C(=O)N[C@@H](CCCCN)C(=O)N[C@@H](CCCCN)C(=O)N[C@H](C(=O)N[C@@H](CCC(=O)O)C(=O)N[C@H](C(=O)N[C@@H](CCC(N)=O)C(=O)N[C@@H](CCC(=O)O)C(=O)N[C@@H](CCCCN)C(=O)N[C@@H](CC(N)=O)C(=O)N1CCC[C@H]1C(=O)N[C@@H](CC(C)C)C(=O)N1CCC[C@H]1C(=O)N[C@@H](CO)C(=O)N[C@@H](CCCCN)C(=O)N[C@@H](CCC(=O)O)C(=O)N[C@H](C(=O)N[C@H](C(=O)N[C@@H](CCC(=O)O)C(=O)N[C@@H](CCC(N)=O)C(=O)N[C@@H](CCC(=O)O)C(=O)N[C@@H](CCCCN)C(=O)N[C@@H](CCC(N)=O)C(=O)N[C@@H](C)C(=O)NCC(=O)N[C@@H](CCC(=O)O)C(=O)N[C@@H](CO)C(=O)O)[C@@H](C)CC)[C@@H](C)O)[C@@H](C)O)[C@@H](C)O [Tβ4, thymosin β4]
lowest dose where activity and/or protection was demonstrated ([1]; against Pseudomonas aeruginosa): 0.5 to 1 µg/mL | EC50 against Pseudomonas aeruginosa ([1]; in vitro): 26.5 ± 1.6 µg/mL (≈ 5.34 µM) | effectiveness against staphylococcal strains [2]: weakly effective | effectiveness against staphylococcal strains [3]: weakly effective | concentrations showing antimicrobial activity [4]: 5-20 n mol/ml | concentrations showing increasingly dose-dependent activity [4]: 50-200 n mol/ml | EC50 against PA [5]: 18.1 ± 1.7 µg/mL (≈ 3.65 µM) | concentrations showing antimicrobial activity [6]: 5-20 n mol/ml | concentrations showing increasingly dose-dependent activity [6]: 50-200 n mol/ml
